# Source: patent US9586931B2 (Merck Sharp & Dohme Corp., priority 2012, dated 2017)
# pIC50: −log10 of the molar value.
# Target: T1, recombinant human GST-Syk (Homo sapiens, UniProt P43405)
# T1 construct: purchased Carna Biosciences 08-176
# Assay: Homogeneous Time-Resolved Fluorescence (HTRF) assay for the recombinant human Syk enzyme
# Assay type: biochemical
# Details: recombinant human GST-Syk 5 pM, ATP 25 μM, 10-dose titration 10 μM to 0.508 nM; read-out: rhSYK Activity IC50
# Method in brief: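 Detection used time-resolved fluorescence 30 min after adding a quench mix (40 mM EDTA, 15 mM Tris pH 7.5, 0.01% Tween 20) containing 2 nM Europium anti-pTyr antibody and 70 nM streptavidin-APC. This followed 45 min of room-temperature peptide phosphorylation by recombinant GST-tagged human Syk.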
row,Structure (SMILES),pIC50
1,"Cc1cc(Nc2cc(C(F)(F)F)ccn2)nc(-c2cn(C3CCCCC(O)C3O)nn2)c1 (single isomer, unassigned) [Example 10.5, 3-[4-(4-methyl-6-{[4-(trifluoromethyl)pyridin-2-yl]amino}pyridin-2-yl)-1H-1,2,3-triazol-1-yl]cycloheptane-1,2-diol]",8.59
2,"Cc1cc(Nc2cc(C(F)(F)F)ccn2)nc(-c2cn(C3CCCCC(O)C3O)nn2)c1 (single isomer, unassigned) [Example 10.6, 3-[4-(4-methyl-6-{[4-(trifluoromethyl)pyridin-2-yl]amino}pyridin-2-yl)-1H-1,2,3-triazol-1-yl]cycloheptane-1,2-diol]",8.33
3,"Cc1cc(Nc2cc(C(F)(F)F)ccn2)nc(-c2cn(C3CN(C(=O)C(C)O)CC3O)nn2)c1 (single isomer, unassigned) [Example 13.2, 1-[2-hydroxypropanoyl]-4-[4-(4-methyl-6-{[4-(trifluoromethyl)pyridin-2-yl]amino}pyridin-2-yl)-1H-1,2,3-triazol-1-yl]pyrrolidin-3-ol]",7.63
4,"Cc1cc(Nc2cc(C(F)(F)F)ccn2)nc(-c2cn(C3CN(C(=O)C(C)O)CC3O)nn2)c1 (single isomer, unassigned) [Example 13.3, 1-[2-hydroxypropanoyl]-4-[4-(4-methyl-6-{[4-(trifluoromethyl)pyridin-2-yl]amino}pyridin-2-yl)-1H-1,2,3-triazol-1-yl]pyrrolidin-3-ol]",7.98
5,"Cc1cc(Nc2cc(C(F)(F)F)ccn2)nc(-c2cn(C3CN(C(=O)C(C)O)CC3O)nn2)c1 (single isomer, unassigned) [Example 13.4, 1-[2-hydroxypropanoyl]-4-[4-(4-methyl-6-{[4-(trifluoromethyl)pyridin-2-yl]amino}pyridin-2-yl)-1H-1,2,3-triazol-1-yl]pyrrolidin-3-ol]",7.82
6,"Cc1cc(Nc2nccc(C)n2)cc(-c2cn(C[C@](C)(O)CO)nn2)c1 (single isomer, unassigned) [Example 21.1, 2-Methyl-3-(4-(3-methyl-5-((4-methylpyrimidin-2-yl)amino)phenyl)-1H-1,2,3-triazol-1-yl)propane-1,2-diol]",8.21
7,"Cc1cc(Nc2nccc(C)n2)cc(-c2cn(C[C@](C)(O)CO)nn2)c1 (single isomer, unassigned) [Example 21.2, 2-methyl-3-(4-(3-methyl-5-((4-methylpyrimidin-2-yl)amino)phenyl)-1H-1,2,3-triazol-1-yl)propane-1,2-diol]",8.70
8,"Cc1cc(Nc2nccc(C(F)(F)F)n2)cc(-c2cn(CC(C)(O)CO)nn2)c1 (single isomer, unassigned) [Example 21.3, 2-methyl-3-[4-(3-methyl-5-{[4-(trifluoromethyl)pyrimidin-2-yl]amino}phenyl)-1H-1,2,3-triazol-1-yl]propane-1,2-diol]",8.15
9,"Cc1cc(Nc2nccc(C(F)(F)F)n2)cc(-c2cn(CC(C)(O)CO)nn2)c1 (single isomer, unassigned) [Example 21.4, 2-methyl-3-[4-(3-methyl-5-{[4-(trifluoromethyl)pyrimidin-2-yl]amino}phenyl)-1H-1,2,3-triazol-1-yl]propane-1,2-diol]",7.99
10,"CC(O)(CO)Cn1cc(-c2cccc(Nc3nccc(C(F)(F)F)n3)c2)nn1 (single isomer, unassigned) [Example 21.5, 2-methyl-3-[4-(3-{[4-(trifluoromethyl)pyrimidin-2-yl]amino}phenyl)-1H-1,2,3-triazol-1-yl]propane-1,2-diol]",7.33
11,"CC(O)(CO)Cn1cc(-c2cccc(Nc3nccc(C(F)(F)F)n3)c2)nn1 (single isomer, unassigned) [Example 21.6, 2-methyl-3-[4-(3-{[4-(trifluoromethyl)pyrimidin-2-yl]amino}phenyl)-1H-1,2,3-triazol-1-yl]propane-1,2-diol]",7.35
12,"Cc1cc(Nc2nccc(C(F)F)n2)cc(-c2cn(CC(C)(O)CO)nn2)c1 (single isomer, unassigned) [Example 21.7, 3-[4-(3-{[4-(difluoromethyl)pyrimidin-2-yl]amino}-5-methylphenyl)-1H-1,2,3-triazol-1-yl]-2-methylpropane-1,2-diol]",8.14
13,"Cc1cc(Nc2nccc(C(F)F)n2)cc(-c2cn(CC(C)(O)CO)nn2)c1 (single isomer, unassigned) [Example 21.8, 3-[4-(3-{[4-(difluoromethyl)pyrimidin-2-yl]amino}-5-methylphenyl)-1H-1,2,3-triazol-1-yl]-2-methylpropane-1,2-diol]",7.88
14,"Cc1cc(Nc2nccc(C(F)F)n2)cc(-c2cn(CC3CNCCO3)nn2)c1 (single isomer, unassigned) [Example 22.1, 4-(Difluoromethyl)-N-(3-methyl-5-(1-(morpholin-2-ylmethyl)-1H-1,2,3-triazol-4-yl)phenyl) pyrimidin-2-amine]",7.84
15,"Cc1cc(Nc2nccc(C(F)F)n2)cc(-c2cn(CC3CNCCO3)nn2)c1 (single isomer, unassigned) [Example 22.2, 4-(difluoromethyl)-N-(3-methyl-5-(1-(morpholin-2-ylmethyl)-1H-1,2,3-triazol-4-yl)phenyl) pyrimidin-2-amine]",8.77
16,"Cc1cc(Nc2cc(C(F)F)ccn2)nc(-c2cn(CC(C)(O)CC#N)nn2)c1 (single isomer, unassigned) [Example 23.1, 4-(4-(6-((4-(difluoromethyl)pyridin-2-yl)amino)-4-methylpyridin-2-yl)-1H-1,2,3-triazol-1-yl)-3-hydroxy-3-methylbutanenitrile]",8.14
17,"Cc1cc(Nc2cc(C(F)F)ccn2)nc(-c2cn(CC(C)(O)CC#N)nn2)c1 (single isomer, unassigned) [Example 23.2, 4-(4-(6-((4-(difluoromethyl)pyridin-2-yl)amino)-4-methylpyridin-2-yl)-1H-1,2,3-triazol-1-yl)-3-hydroxy-3-methylbutanenitrile]",8.05
18,"Cc1cc(Nc2cc(C(F)F)ccn2)nc(-c2cn(CC3CNC(=O)C3)nn2)c1 (single isomer, unassigned) [Example 24.1, 4-((4-(6-((4-(difluoromethyl)pyridin-2-yl)amino)-4-methylpyridin-2-yl)-1H-1,2,3-triazol-1-yl)methyl)pyrrolidin-2-one]",7.91
19,"Cc1cc(Nc2cc(C(F)F)ccn2)nc(-c2cn(CC3CNC(=O)C3)nn2)c1 (single isomer, unassigned) [Example 24.2, 4-((4-(6-((4-(difluoromethyl)pyridin-2-yl)amino)-4-methylpyridin-2-yl)-1H-1,2,3-triazol-1-yl)methyl)pyrrolidin-2-one]",8.07
20,"Cc1cc(Nc2nccc(C(F)F)n2)cc(-c2cn(C3CCCC(O)C3O)nn2)c1 (single isomer, unassigned) [Example 25.1, 3-(4-(3-((4-(Difluoromethyl)pyrimidin-2-yl)amino)-5-methylphenyl)-1H-1,2,3-triazol-1-yl)cyclohexane-1,2-diol]",8.02
21,"Cc1cc(Nc2nccc(C(F)F)n2)cc(-c2cn(C3CCCC(O)C3O)nn2)c1 (single isomer, unassigned) [Example 25.2, 3-(4-(3-((4-(difluoromethyl)pyrimidin-2-yl)amino)-5-methylphenyl)-1H-1,2,3-triazol-1-yl)cyclohexane-1,2-diol]",8.14
22,"Cc1cc(Nc2cc(C(F)F)ccn2)nc(-c2cn(CC3CNCCO3)nn2)c1 (single isomer, unassigned) [Example 26.1, N-(4-(difluoromethyl)pyridin-2-yl)-4-methyl-6-(1-(morpholin-2-ylmethyl)-1H-1,2,3-triazol-4-yl)pyridin-2-amine]",8.24
23,"Cc1cc(Nc2cc(C(F)F)ccn2)nc(-c2cn(CC3CNCCO3)nn2)c1 (single isomer, unassigned) [Example 26.2, N-(4-(difluoromethyl)pyridin-2-yl)-4-methyl-6-(1-(morpholin-2-ylmethyl)-1H-1,2,3-triazol-4-yl)pyridin-2-amine]",8.48
24,"Cc1cc(Nc2nccc(C(F)F)n2)cc(-c2cn(CC(C)(O)CC#N)nn2)c1 (single isomer, unassigned) [Example 27.1, 4-(4-(3-((4-(difluoromethyl)pyrimidin-2-yl)amino)-5-methylphenyl)-1H-1,2,3-triazol-1-yl)-3-hydroxy-3-methylbutanenitrile]",7.71
25,"Cc1cc(Nc2nccc(C(F)F)n2)cc(-c2cn(CC(C)(O)CC#N)nn2)c1 (single isomer, unassigned) [Example 27.2, 4-(4-(3-((4-(Difluoromethyl)pyrimidin-2-yl)amino)-5-methylphenyl)-1H-1,2,3-triazol-1-yl)-3-hydroxy-3-methylbutanenitrile]",7.68
26,"Cc1cc(Nc2nccc(C(F)F)n2)cc(-c2cn(CC3CNC(=O)C3)nn2)c1 (single isomer, unassigned) [Example 28.1, 4-((4-(3-((4-(difluoromethyl)pyrimidin-2-yl)amino)-5-methylphenyl)-1H-1,2,3-triazol-1-yl)methyl)pyrrolidin-2-one]",8.08
27,"Cc1cc(Nc2nccc(C(F)F)n2)cc(-c2cn(CC3CNC(=O)C3)nn2)c1 (single isomer, unassigned) [Example 28.2, 4-((4-(3-((4-(difluoromethyl)pyrimidin-2-yl)amino)-5-methylphenyl)-1H-1,2,3-triazol-1-yl)methyl)pyrrolidin-2-one]",8.27
28,"Cc1cc(Nc2nccc(C(F)F)n2)cc(-c2cn(C3CCCC(C)(O)C3O)nn2)c1 (single isomer, unassigned) [Example 29.1, 3-(4-(3-((4-(Difluoromethyl)pyrimidin-2-yl)amino)-5-methylphenyl)-1H-1,2,3-triazol-1-yl)-1-methylcyclohexane-1,2-diol]",7.71
29,"Cc1cc(Nc2nccc(C(F)F)n2)cc(-c2cn(C3CCCC(C)(O)C3O)nn2)c1 (single isomer, unassigned) [Example 29.2, 3-(4-(3-((4-(Difluoromethyl)pyrimidin-2-yl)amino)-5-methylphenyl)-1H-1,2,3-triazol-1-yl)-1-methylcyclohexane-1,2-diol]",7.51
